Data: patent US20060258729A1, “Antibacterial pyrazole carboxylic acid hydrazides” (priority 2002, published 2006)
In brackets after ≈: the same amount, converted by molar mass.

What was measured:
[1] = tested on: Enterococcus faecalis strain 29212; assay: Inhibition of bacterial growth (MIC), Efcl; type: cell-based; settings: 16 to 18 hours, 37° C., read-out: Minimum Inhibitory Concentration for Bacterial Growth, Efcl
Experimental: (§1) Each compound was assayed against a panel of a strain of Bacillus subtilis, of strains of antibiotic-resistant and sensitive Enterococcus and Staphylococcus species, and of a strain of the Gram-negative bacterium Escherichia coli. Compounds were dissolved in DMSO at 100× the desired highest concentration and added to one well of a 96-well microassay plate. Two-fold serial drug dilutions were made across the plate in DMSO to yield 11 concentrations (usually 80-0.078 μg/mL) plus an untreated control. Drugs were then transferred to fresh plates using 1.5 μL per well. Log phase cultures were diluted to yield a concentration of 1×10^5 colony forming units/mL in either LB or BHI medium and transferred to the plates containing drug for a final volume of 150 μL. Each well, including the DMSO controls, contained a final concentration of 1% DMSO. Plates were incubated with shaking at 37° C. for 16 to 18 hours. Cell growth was determined by measuring optical density (570 nm, 1 cm path length) in a microplate reader. MIC (minimum inhibitory concentration) is equivalent to the lowest concentration at which growth is not observed. The bacterial strains and MIC determinations have been well characterized and are described elsewhere (Tarantino et al., Antimicrob. Agents Chemother., 43: 1982-1987 (1999); Daly et al., Antimicrob. Agents Chemother., 44: 2217-2221 (2000)).

[2] = tested on: Bacillus subtilis strain BD54; assay: Inhibition of bacterial growth (MIC), Bs; type: cell-based; settings: 16 to 18 hours, 37° C., read-out: Minimum Inhibitory Concentration for Bacterial Growth, Bs
Experimental: as §1

[3] = tested on: Staphylococcus aureus strain IP 8; assay: Inhibition of bacterial growth (MIC), Sa; type: cell-based; settings: IP8, 16 to 18 hours, 37° C., read-out: Minimum Inhibitory Concentration for Bacterial Growth, Sa
Experimental: as §1

B. subtilis pol IIIC = biological target: T1, B. subtilis pol IIIC (Bacillus subtilis, UniProt P13267); assay: DNA polymerase assay, B. subtilis pol IIIC; type: biochemical; settings: for B. subtilis Pol IIIC IC50, 4 dNTPs: in the presence of all four dNTP substrates; for inhibition at 80 µg/mL: read-out: Percent Enzymatic Inhibition B. subtilis pol IIIC
T1 construct: made in house
Experimental: Recombinant, purified pol IIIC and pol IIIE from Bacillus subtilis were obtained using known methods (Hammond et al., Gene 98: 29-36 (1991), regarding pol IIIC; Barnes et al., J. Bacteriol. 184, 3834-3838 (2002), regarding pol IIIE). Recombinant, purified pol IIIE from Escherichia coli was obtained from a commercial source (Enzyco, Denver, Colo.). The enzyme assays were performed in 96-well plate format using the same assay mix for all three enzymes. […] Dilutions of compounds were added to the plate in 1% DMSO (1 μL/well). Assays were initiated by the addition of 0.025 to 0.06 units of enzyme (1 unit is the amount required to incorporate 250 pmoles of [^3H] dTMP in a standard assay), incubated for 10 min at 30° C. and terminated by the addition of 200 μL of cold 10% trichloroacetic acid, 10 mM sodium pyrophosphate. Precipitated labeled DNA was collected on glass fiber filter plates that had been pre-wet with ice cold 1 M HCl, 100 mM sodium pyrophosphate. The plates were washed with the HCl solution followed by ice cold 90% ethanol and then dried and counted in a liquid scintillation counter. […] In addition, percent inhibition values are calculated as the percent reduction in the activity of a DMSO (diluent) control.

S. aureus Smith strain = assay: Inhibition of bacterial growth (MIC), Sm; type: cell-based, Staphylococcus aureus; settings: Staphylococcus aureus, 16 to 18 hours, 37° C., read-out: Minimum Inhibitory Concentration for Bacterial Growth, Sm
Experimental: as §1

[4] = tested on: methicillin-resistant S. aureus strain 1094; assay: Inhibition of bacterial growth (MIC), MRSA; type: cell-based, Staphylococcus aureus; settings: Staphylococcus aureus, MRSA, 16 to 18 hours, 37° C., read-out: Minimum Inhibitory Concentration for Bacterial Growth, MRSA
Experimental: as §1

[5] = tested on: Escherichia coli strain J53; assay: Inhibition of bacterial growth (MIC), Ec; type: cell-based; settings: 16 to 18 hours, 37° C., read-out: Minimum Inhibitory Concentration for Bacterial Growth, Ec
Experimental: as §1

B. subtilis pol IIIE [6] = biological target: T2, B. subtilis pol IIIE (Bacillus subtilis, UniProt O34623); assay: DNA polymerase assay, B. subtilis pol IIIE; type: biochemical
T2 construct: made in house

B. subtilis pol IIIE [7] = biological target: T2, B. subtilis pol IIIE; assay: DNA polymerase assay, B. subtilis pol IIIE; type: biochemical; settings: for inhibition at 80 µg/mL: 80 μg/mL (190-260 μM) final concentration, all four dNTPs, read-out: Percent Enzymatic Inhibition B. subtilis pol IIIE; for IC50: B. subtilis Pol IIIE IC50, 4 dNTPs
Experimental: (§2) Recombinant, purified pol IIIC and pol IIIE from Bacillus subtilis were obtained using known methods (Hammond et al., Gene 98: 29-36 (1991), regarding pol IIIC; Barnes et al., J. Bacteriol. 184, 3834-3838 (2002), regarding pol IIIE). Recombinant, purified pol IIIE from Escherichia coli was obtained from a commercial source (Enzyco, Denver, Colo.). The enzyme assays were performed in 96-well plate format using the same assay mix for all three enzymes. Each 25 μL assay contained 30 mM Tris, pH 7.5, 10 mM magnesium acetate, 4 mM dithiothreitol, 20% glycerol, with 10 μM dATP, dCTP, dGTP and dTTP (3H-labelled at 1.44 Ci/mmole) and 0.4 mg/mL activated calf thymus DNA as substrates. Dilutions of compounds were added to the plate in 1% DMSO (1 μL/well). Assays were initiated by the addition of 0.025 to 0.06 units of enzyme (1 unit is the amount required to incorporate 250 pmoles of [^3H] dTMP in a standard assay), incubated for 10 min at 30° C. and terminated by the addition of 200 μL of cold 10% trichloroacetic acid, 10 mM sodium pyrophosphate. Precipitated labeled DNA was collected on glass fiber filter plates that had been pre-wet with ice cold 1 M HCl, 100 mM sodium pyrophosphate. The plates were washed with the HCl solution followed by ice cold 90% ethanol and then dried and counted in a liquid scintillation counter. The calculated IC50 is the concentration needed to inhibit 50% of the DNA polymerase activity in the presence of all four dNTP substrates. In addition, percent inhibition values are calculated as the percent reduction in the activity of a DMSO (diluent) control.

[8] = tested on: E. faecium clinical isolate; assay: Inhibition of bacterial growth (MIC), Efcm; type: cell-based; settings: Enterococcus faecium, 16 to 18 hours, 37° C., read-out: Minimum Inhibitory Concentration for Bacterial Growth, Efcm
Experimental: as §1

E. coli pol IIIE = biological target: T3, E. coli pol IIIE (Escherichia coli, UniProt P10443); assay: DNA polymerase assay, E. coli pol IIIE; type: biochemical; settings: 80 μg/mL (190-260 μM) final concentration, all four dNTPs
T3 construct: purchased Enzyco, Denver, Colo
Experimental: as §2

[9] = tested on: vancomycin-resistant Enterococcus strain B42762; assay: Inhibition of bacterial growth (MIC), VRE; type: cell-based; settings: VRE, 16 to 18 hours, 37° C., read-out: Minimum Inhibitory Concentration for Bacterial Growth, VRE
Experimental: as §1

[10] = 80 μg/mL (190-260 μM) final concentration, all four dNTPs
[11] = B. subtilis Pol IIIC IC50, −dATP, in the absence of dATP
[12] = B. subtilis Pol IIIC IC50, −dCTP, in the absence of dCTP
[13] = B. subtilis Pol IIIC IC50, −dGTP, in the absence of dGTP
[14] = B. subtilis Pol IIIE IC50, −dATP, in the absence of dATP
[15] = B. subtilis Pol IIIE IC50, −dCTP, in the absence of dCTP
[16] = B. subtilis Pol IIIE IC50, −dGTP, in the absence of dGTP
[17] = in the presence of all four dNTP substrates

T2 sequence (O34623 whole entry): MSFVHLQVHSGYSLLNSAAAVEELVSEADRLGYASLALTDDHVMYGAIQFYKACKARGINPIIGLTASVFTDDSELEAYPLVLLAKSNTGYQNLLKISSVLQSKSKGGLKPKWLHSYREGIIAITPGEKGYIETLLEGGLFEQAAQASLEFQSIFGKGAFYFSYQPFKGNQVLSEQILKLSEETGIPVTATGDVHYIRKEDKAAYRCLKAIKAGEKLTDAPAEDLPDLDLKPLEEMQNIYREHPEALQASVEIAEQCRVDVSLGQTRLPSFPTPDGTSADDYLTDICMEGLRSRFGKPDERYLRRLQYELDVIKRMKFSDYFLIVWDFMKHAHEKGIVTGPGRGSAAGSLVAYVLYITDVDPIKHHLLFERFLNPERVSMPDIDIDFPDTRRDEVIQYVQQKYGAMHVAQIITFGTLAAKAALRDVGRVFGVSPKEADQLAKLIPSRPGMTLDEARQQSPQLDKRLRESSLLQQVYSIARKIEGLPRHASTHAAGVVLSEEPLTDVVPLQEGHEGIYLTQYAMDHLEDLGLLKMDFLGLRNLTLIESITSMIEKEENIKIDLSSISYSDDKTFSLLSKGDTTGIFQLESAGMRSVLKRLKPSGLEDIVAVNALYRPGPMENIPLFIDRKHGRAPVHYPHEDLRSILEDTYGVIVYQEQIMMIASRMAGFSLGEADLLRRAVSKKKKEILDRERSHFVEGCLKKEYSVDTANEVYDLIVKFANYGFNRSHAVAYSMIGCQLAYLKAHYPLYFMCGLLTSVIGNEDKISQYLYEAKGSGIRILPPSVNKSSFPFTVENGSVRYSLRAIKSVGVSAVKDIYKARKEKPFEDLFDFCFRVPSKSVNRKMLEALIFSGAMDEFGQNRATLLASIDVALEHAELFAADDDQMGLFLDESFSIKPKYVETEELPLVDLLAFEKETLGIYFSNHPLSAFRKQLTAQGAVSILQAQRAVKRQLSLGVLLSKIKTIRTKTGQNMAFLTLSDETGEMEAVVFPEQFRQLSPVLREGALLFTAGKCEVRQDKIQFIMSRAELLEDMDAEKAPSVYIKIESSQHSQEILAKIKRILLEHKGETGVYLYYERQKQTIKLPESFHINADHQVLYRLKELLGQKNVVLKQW
T3 sequence (P10443 whole entry): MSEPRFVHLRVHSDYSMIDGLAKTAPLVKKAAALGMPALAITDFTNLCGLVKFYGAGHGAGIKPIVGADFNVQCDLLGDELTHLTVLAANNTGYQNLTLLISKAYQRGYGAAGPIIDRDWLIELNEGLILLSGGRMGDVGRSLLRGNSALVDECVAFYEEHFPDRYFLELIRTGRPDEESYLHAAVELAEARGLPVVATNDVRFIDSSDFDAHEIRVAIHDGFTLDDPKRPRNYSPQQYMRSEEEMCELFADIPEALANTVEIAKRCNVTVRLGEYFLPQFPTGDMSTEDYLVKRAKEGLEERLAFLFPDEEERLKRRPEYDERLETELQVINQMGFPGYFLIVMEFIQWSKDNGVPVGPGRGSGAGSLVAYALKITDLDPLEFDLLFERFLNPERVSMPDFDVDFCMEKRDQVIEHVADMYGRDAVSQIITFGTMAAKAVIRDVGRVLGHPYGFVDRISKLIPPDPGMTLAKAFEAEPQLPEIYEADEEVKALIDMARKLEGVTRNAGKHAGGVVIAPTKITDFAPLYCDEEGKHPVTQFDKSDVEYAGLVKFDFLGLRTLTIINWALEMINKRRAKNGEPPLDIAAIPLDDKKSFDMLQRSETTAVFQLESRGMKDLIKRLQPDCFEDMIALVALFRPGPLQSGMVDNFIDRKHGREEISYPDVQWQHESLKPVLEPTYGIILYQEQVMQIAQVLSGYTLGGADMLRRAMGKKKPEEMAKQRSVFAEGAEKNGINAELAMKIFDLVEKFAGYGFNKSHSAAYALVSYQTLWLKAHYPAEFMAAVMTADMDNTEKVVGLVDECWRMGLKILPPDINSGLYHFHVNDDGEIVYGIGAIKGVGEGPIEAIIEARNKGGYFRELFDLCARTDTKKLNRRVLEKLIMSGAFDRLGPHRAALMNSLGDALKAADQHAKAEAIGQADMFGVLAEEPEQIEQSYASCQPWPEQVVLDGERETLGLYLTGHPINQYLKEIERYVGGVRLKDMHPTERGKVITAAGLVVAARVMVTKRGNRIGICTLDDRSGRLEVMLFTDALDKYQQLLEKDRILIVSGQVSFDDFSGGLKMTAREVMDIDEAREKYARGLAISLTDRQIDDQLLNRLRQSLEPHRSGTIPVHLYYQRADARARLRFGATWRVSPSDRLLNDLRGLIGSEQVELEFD
T1 sequence (P13267 whole entry): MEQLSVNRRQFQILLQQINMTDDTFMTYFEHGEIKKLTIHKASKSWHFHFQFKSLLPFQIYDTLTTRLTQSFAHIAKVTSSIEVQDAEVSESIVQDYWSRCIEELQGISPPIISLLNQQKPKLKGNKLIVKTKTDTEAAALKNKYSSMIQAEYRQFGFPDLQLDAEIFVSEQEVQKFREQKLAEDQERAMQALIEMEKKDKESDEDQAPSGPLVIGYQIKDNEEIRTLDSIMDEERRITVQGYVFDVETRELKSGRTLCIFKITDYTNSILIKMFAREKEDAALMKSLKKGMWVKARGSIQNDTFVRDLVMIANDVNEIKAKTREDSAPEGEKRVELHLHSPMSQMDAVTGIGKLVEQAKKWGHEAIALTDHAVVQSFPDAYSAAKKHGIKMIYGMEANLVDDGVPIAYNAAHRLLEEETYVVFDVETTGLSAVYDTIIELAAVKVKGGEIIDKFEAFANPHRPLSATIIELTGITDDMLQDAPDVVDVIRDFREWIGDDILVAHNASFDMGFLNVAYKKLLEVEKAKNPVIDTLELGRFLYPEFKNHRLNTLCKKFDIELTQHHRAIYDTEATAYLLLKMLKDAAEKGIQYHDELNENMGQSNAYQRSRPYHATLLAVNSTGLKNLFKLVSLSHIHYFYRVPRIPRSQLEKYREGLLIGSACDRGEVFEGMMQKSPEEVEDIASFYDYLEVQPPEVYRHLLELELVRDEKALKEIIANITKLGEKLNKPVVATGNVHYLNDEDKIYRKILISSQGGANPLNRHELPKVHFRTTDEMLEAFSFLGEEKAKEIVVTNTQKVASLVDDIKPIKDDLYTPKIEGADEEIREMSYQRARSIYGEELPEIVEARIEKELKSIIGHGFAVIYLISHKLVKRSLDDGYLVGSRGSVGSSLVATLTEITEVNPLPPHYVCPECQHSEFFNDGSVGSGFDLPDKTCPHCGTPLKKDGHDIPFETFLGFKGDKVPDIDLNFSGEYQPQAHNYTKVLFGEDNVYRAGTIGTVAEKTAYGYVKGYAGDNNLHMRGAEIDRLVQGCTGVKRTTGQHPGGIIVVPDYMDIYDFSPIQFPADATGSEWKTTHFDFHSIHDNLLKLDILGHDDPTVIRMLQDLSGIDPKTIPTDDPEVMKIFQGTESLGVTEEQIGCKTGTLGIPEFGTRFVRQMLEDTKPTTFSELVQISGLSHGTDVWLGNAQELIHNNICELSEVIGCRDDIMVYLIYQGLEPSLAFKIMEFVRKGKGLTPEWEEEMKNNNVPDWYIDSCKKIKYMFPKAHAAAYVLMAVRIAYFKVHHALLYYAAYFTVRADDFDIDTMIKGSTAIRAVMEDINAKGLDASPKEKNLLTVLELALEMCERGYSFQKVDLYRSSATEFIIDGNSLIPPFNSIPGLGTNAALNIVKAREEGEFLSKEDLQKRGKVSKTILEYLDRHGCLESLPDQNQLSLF

Which MIC [1] does the source give for `COc1cccc(-c2cc(C(=O)NN=Cc3ccc(OC)c(OC)c3)[nH]n2)c1` [Compound 2] here?
Its MIC is 40 µg/mL (≈ 105 µM).

What about the MIC [2] of the same compound?
Its MIC is 20 µg/mL (≈ 52.6 µM).

What about the MIC [3] of the same compound?
The MIC was 10 µg/mL (≈ 26.3 µM).

What about the “Percent Enzymatic Inhibition B. subtilis pol IIIC” value (B. subtilis pol IIIC; [10]) of the same compound?
The value was “Inactive”.

What about the IC50 (B. subtilis pol IIIC; [11]) of the same compound?
The IC50 was 99 µM.

And the IC50 (B. subtilis pol IIIC; [12])?
The IC50 was 287 µM.

And the IC50 (B. subtilis pol IIIC; [13])?
Its IC50 is 406 µM.

What about the “B. subtilis Pol IIIC IC50, 4 dNTPs” value (B. subtilis pol IIIC) of the same compound?
Its value is “Inactive”.

And the MIC (S. aureus Smith strain)?
Its MIC is 20 µg/mL (≈ 52.6 µM).

And the MIC [4]?
Its MIC is 20 µg/mL (≈ 52.6 µM).

And the MIC [5]?
The MIC was greater than 80 µg/mL.

And the IC50 (B. subtilis pol IIIE [6]; [14])?
Its IC50 is 57 µM.

And the IC50 (B. subtilis pol IIIE [6]; [15])?
Its IC50 is 104 µM.

What about the IC50 (B. subtilis pol IIIE [6]; [16]) of the same compound?
The IC50 was 78 µM.

And the inhibition at 80 µg/mL (B. subtilis pol IIIE [7])?
Its inhibition at 80 µg/mL is greater than 20%.

What about the IC50 (B. subtilis pol IIIE [7]; [17]) of the same compound?
The IC50 was 604 µM.

And the MIC [8]?
The MIC was 60 µg/mL (≈ 158 µM).

And the inhibition at 80 µg/mL (E. coli pol IIIE; read-out: Percent Enzymatic Inhibition E. coli pol IIIE)?
The inhibition at 80 µg/mL was 1.7%.

What about the MIC [9] of the same compound?
Its MIC is 40 µg/mL (≈ 105 µM).

For `CCOc1cc(C=NNC(=O)c2cc(-c3cccc(OC)c3)n[nH]2)ccc1O` [Compound 3], which MIC [1] is on record?
Its MIC is 80 µg/mL (≈ 210 µM).

And the MIC [2]?
The MIC was greater than 80 µg/mL.

And the MIC [3]?
Its MIC is 20 µg/mL (≈ 52.6 µM).

And the inhibition at 80 µg/mL (B. subtilis pol IIIC; [10])?
Its inhibition at 80 µg/mL is 5.3%.

And the IC50 (B. subtilis pol IIIC; [11])?
The IC50 was 141 µM.

What about the IC50 (B. subtilis pol IIIC; [12]) of the same compound?
The IC50 was 563 µM.

What about the IC50 (B. subtilis pol IIIC; [13]) of the same compound?
The IC50 was 301 µM.

And the “B. subtilis Pol IIIC IC50, 4 dNTPs” value (B. subtilis pol IIIC)?
Its value is “Inactive”.

And the MIC (S. aureus Smith strain)?
Its MIC is 40 µg/mL (≈ 105 µM).

And the MIC [4]?
The MIC was 40 µg/mL (≈ 105 µM).

What about the MIC [5] of the same compound?
Its MIC is greater than 80 µg/mL.

And the IC50 (B. subtilis pol IIIE [6]; [14])?
The IC50 was 124 µM.

And the IC50 (B. subtilis pol IIIE [6]; [15])?
The IC50 was 222 µM.

And the IC50 (B. subtilis pol IIIE [6]; [16])?
The IC50 was 311 µM.

And the inhibition at 80 µg/mL (B. subtilis pol IIIE [7])?
The inhibition at 80 µg/mL was greater than 20%.

And the “B. subtilis Pol IIIE IC50, 4 dNTPs” value (B. subtilis pol IIIE [7]; [17])?
The value was “Inactive”.

What about the MIC [8] of the same compound?
The MIC was 80 µg/mL (≈ 210 µM).

And the “Percent Enzymatic Inhibition E. coli pol IIIE” value (E. coli pol IIIE)?
The value was “Inactive”.

And the MIC [9]?
Its MIC is 40 µg/mL (≈ 105 µM).

What does the source list for `O=C(NN=Cc1ccc(O)cc1O)c1cc(-c2ccccc2)n[nH]1` [Compound 4]?
MIC [1]: > 80 µg/mL; MIC [2]: 40 µg/mL (≈ 124 µM); MIC [3]: 30 µg/mL (≈ 93.1 µM); inhibition at 80 µg/mL (B. subtilis pol IIIC; [10]): 15.8%; IC50 (B. subtilis pol IIIC; [11]): 81 µM; IC50 (B. subtilis pol IIIC; [12]): 228 µM; IC50 (B. subtilis pol IIIC; [13]): 98 µM; B. subtilis Pol IIIC IC50, 4 dNTPs (B. subtilis pol IIIC): Inactive; MIC (S. aureus Smith strain): 60 µg/mL (≈ 186 µM); MIC [4]: 40 µg/mL (≈ 124 µM); MIC [5]: > 80 µg/mL; IC50 (B. subtilis pol IIIE [6]; [14]): 278 µM; IC50 (B. subtilis pol IIIE [6]; [15]): 347 µM; IC50 (B. subtilis pol IIIE [6]; [16]): 183 µM; inhibition at 80 µg/mL (B. subtilis pol IIIE [7]): > 20%; IC50 (B. subtilis pol IIIE [7]; [17]): 699 µM; MIC [8]: 30 µg/mL (≈ 93.1 µM); Percent Enzymatic Inhibition E. coli pol IIIE (E. coli pol IIIE): Inactive; MIC [9]: > 80 µg/mL
